Measurements taken from article PMC11066040, “Nuclear phosphoinositide signaling promotes YAP/TAZ-TEAD transcriptional activity in breast cancer” (The EMBO Journal, 2024).

Key:
[1] = molecular target: T1, GST-YAP (Homo sapiens, UniProt P46937); experiment: microscale thermophoresis; format: binding
T1 construct: gene YAP1

[2] = molecular target: T1, GST-YAP; experiment: microscale thermophoresis; format: binding; details: pH 8.0, 50 mM NaCl, 80 mM KCl, 0.05% Tween-20; fluorescently labeled GST-YAP

T1 sequence (P46937 whole entry): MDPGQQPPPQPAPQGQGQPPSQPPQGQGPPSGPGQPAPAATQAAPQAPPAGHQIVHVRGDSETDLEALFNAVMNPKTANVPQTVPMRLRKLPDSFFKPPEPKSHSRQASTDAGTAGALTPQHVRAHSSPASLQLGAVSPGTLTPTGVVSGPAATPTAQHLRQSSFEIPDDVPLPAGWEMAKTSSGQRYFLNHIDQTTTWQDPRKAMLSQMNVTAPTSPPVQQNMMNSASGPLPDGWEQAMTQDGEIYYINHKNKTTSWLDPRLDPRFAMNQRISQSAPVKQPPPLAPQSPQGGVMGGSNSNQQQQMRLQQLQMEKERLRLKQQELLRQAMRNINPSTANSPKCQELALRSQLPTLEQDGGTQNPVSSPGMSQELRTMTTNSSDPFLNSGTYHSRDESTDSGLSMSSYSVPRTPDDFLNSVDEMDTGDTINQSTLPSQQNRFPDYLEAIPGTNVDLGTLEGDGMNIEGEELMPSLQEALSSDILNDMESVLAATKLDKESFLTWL

| Kd [1] | SMILES | binding [2] |
| --- | --- | --- |
| 8.13 ± 2.63 nM | CCCCC/C=C\C/C=C\C/C=C\C/C=C\CCCC(=O)O[C@H](COC(=O)CCCCCCCCCCCCCCCCC)COP(=O)(O)O[C@H]1[C@H](O)[C@@H](OP(=O)(O)O)[C@H](OP(=O)(O)O)[C@@H](OP(=O)(O)O)[C@H]1O [PI(3,4,5)P3] |  |
| 166 ± 13.5 nM | CCCCC/C=C\C/C=C\C/C=C\C/C=C\CCCC(=O)O[C@H](COC(=O)CCCCCCCCCCCCCCCCC)COP(=O)(O)O[C@@H]1[C@H](O)[C@H](O)[C@@H](OP(=O)(O)O)[C@H](OP(=O)(O)O)[C@H]1O [PI(4,5)P2] |  |
|  | CCCCC/C=C\C/C=C\C/C=C\C/C=C\CCCC(=O)O[C@H](COC(=O)CCCCCCCCCCCCCCCCC)COP(=O)(O)O[C@@H]1[C@H](O)[C@H](O)[C@@H](O)[C@H](O)[C@H]1O [PI] | No significant binding of GST-YAP with PI was detected |
